Results from paper PMC5290001 (Clinical cancer research : an official journal of the …, 2016).
Where “and” joins values, the source holds several entries; their conditions need not be identical. Equal entries are not always repeated. Where two headings read alike, the source gives them in different places.

Legend:
[1] = tested on: AML; conditions: cited from earlier work; for Response rate: temozolomide 200 mg/m^2/day x 7 days, adults ≥ 60 years
[2] = Phase 1 dose escalation: toxicity; format: in vivo, human
[3] = Temozolomide plasma pharmacokinetics; format: in vivo, human
[4] = tested on: Ser139-phospho-H2AX (γH2AX); assay: H2AX phosphorylation in viable peripheral blood cells and CD34+ subset; format: in vivo, human
[5] = Veliparib plasma pharmacokinetics; format: in vivo, human; conditions: for half-life: human, plasma, oral
[6] = temozolomide 200 mg/m^2/day alone (day 3), veliparib dose 20–200 mg
[7] = single dose of veliparib, 6 hours, relative to pretreatment, DL5/DL6
[8] = veliparib 200 mg, administered alone

Cn1nnc2c(C(N)=O)ncn2c1=O [Temozolomide, temozolomide]
Overall response rate ([1]; MGMT+ cases): 6%
Overall response rate ([1]; MGMT− AMLs): 60%
Patients achieving a response ([1]; newly diagnosed AML or high-risk MDS with low MGMT expression): 53%
Response rate ([1]; newly diagnosed AML): 22%
Response rate ([1]; relapsed/refractory AML): 5%
Temozolomide dose at the MTD / RP2D ([2]; for 7 days, with veliparib 150 mg twice a day): 200 mg/m^2/day
Cmax ([3]; human, plasma, oral, Cmax, temozolomide 200 mg/m^2/day in combination with veliparib 20–200 mg (day 8)): 12000 ± 3800 ng/mL
half-life ([3]; human, plasma, oral, t1/2, temozolomide 200 mg/m^2/day in combination with veliparib 20–200 mg (day 8)): 1.9 ± 0.4 h
Tmax ([3]; human, plasma, oral, tmax (median), temozolomide 200 mg/m^2/day in combination with veliparib 20–200 mg (day 8)): 1 h
Cl/F, Obs. [3, 6]: 9.2 ± 3.2 L/h
V/F, Obs. [3, 6]: 25 ± 9.1 L
V/F ([3]; temozolomide 200 mg/m^2/day in combination with veliparib 20–200 mg (day 8)): 28±10 (25) L

C[C@]1(c2nc3c(C(N)=O)cccc3[nH]2)CCCN1 [Veliparib, veliparib]
Maximum tolerated dose (MTD) / RP2D of veliparib ([2]; given with temozolomide 200 mg/m^2 daily for 7 days, veliparib for 9 days): 150 mg twice daily
Increase in phospho-H2AX positive CD34+ cells ([4]; 1 patient with HI, day 1): 2.3 fold
Patients with increased H2AX phosphorylation in CD34+ subset [4, 7]: 8 of 12
Patients with increased H2AX phosphorylation in PB cells [4, 7]: 4 of 12
Increase in H2AX phosphorylation in PB cells ([4]; two patients who achieved CR): ≥ 2 fold
Increase in phospho-H2AX positive CD34+ cells ([4]; two patients who achieved CR, day 1, 6 hours post- versus pre-treatment): 2.3 fold and 1.3 fold
half-life ([5]; t1/2, veliparib 120 mg in combination with temozolomide 200 mg/m^2/day (day 8)): 9.1 ± 8 h
half-life ([5]; t1/2, veliparib 150 mg in combination with temozolomide 200 mg/m^2/day (day 8)): 5.3 ± 1.7 h
half-life ([5]; t1/2, veliparib 200 mg in combination with temozolomide 200 mg/m^2/day (day 8)): 3.6 ± 2.8 h
V/F ([5]; veliparib 20 mg alone (day 1), temozolomide dose 150 or 200 mg/m^2/day): 285 ± 175 L
V/F ([5]; veliparib 20 mg in combination with temozolomide 150 or 200 mg/m^2/day (day 8)): 180±49 (3) L
V/F ([5]; veliparib 120 mg alone (day 1), temozolomide dose 200 mg/m^2/day): 181±50 (10) L
V/F ([5]; veliparib 120 mg in combination with temozolomide 200 mg/m^2/day (day 8)): 191±165 (8) L
V/F ([5]; veliparib 150 mg alone (day 1), temozolomide dose 200 mg/m^2/day): 190±72 (16) L
V/F ([5]; veliparib 150 mg in combination with temozolomide 200 mg/m^2/day (day 8)): 109±45 (10) L
V/F ([5]; veliparib 200 mg alone (day 1), temozolomide dose 200 mg/m^2/day): 84±26 (4) L
V/F ([5]; veliparib 200 mg in combination with temozolomide 200 mg/m^2/day (day 8)): 77±59 (3) L
Increase in AUC at the highest administered dose [5, 8]: 1.4 fold
Increase in Cmax at the highest administered dose [5, 8]: 2.5 fold
